Results taken from US8268988B2, “Process for preparing an A2A-adenosine receptor agonist and its polymorphs” (Gilead Sciences, Inc., priority 2006, dated 2012).

Assays:
[1] = biological target: A2A-adenosine receptor (Homo sapiens, UniProt P29274); conditions: result in words; cited from earlier work
[2] = cited from earlier work
[3] = stability of the polymorphs (relative humidity stress, moisture sorption/desorption, thermal analyses); format: physicochemical; conditions: for stability relative to the other polymorphs: ambient temperatures; for stability relative to the other polymorphs / stability under relative humidity stress conditions: monohydrate; for stability under relative humidity stress conditions: up to melting point
Method: Thermogravimetric (TG) analyses were carried out on a TA Instruments 2050 or 2950 thermogravimetric analyzer. The calibration standards were nickel and Alumel™. Samples were placed in an aluminum sample pan, inserted into the TG furnace, and accurately weighed. The samples were heated in nitrogen at a rate of 10° C./min to either 300 or 350° C. Unless stated otherwise, sample weights were equilibrated at 25° C. in the TGA furnace prior to analysis.
Differential scanning calorimetry (DSC) analyses were carried out on a TA Instruments differential scanning calorimeter 2920. Accurately weighed samples were placed in either crimped pans or hermetically sealed pans that contained a pinhole to allow for pressure release. Each sample was heated under nitrogen at a rate of 10° C./min to either 300 or 350° C. Indium metal was used as the calibration standard. Temperatures were reported at the transition maxima.
Moisture sorption/desorption data were collected on a VTI SGA-100 Vapor Sorption Analyzer. Sorption and desorption data were collected over a range of 5% to 95% relative humidity […] at 10% RH intervals under a nitrogen purge. Sodium chloride (NaCl) and polyvinylpyrrolidone (PVP) were used as the calibration standards. Equilibrium criteria used for analysis were less than 0.0100% weight change in 5 minutes, with a maximum equilibration time of 180 minutes if the weight criterion was not met. The plotted data have not been corrected for the initial moisture content.

A2A-adenosine receptor, sequence (P29274 whole entry): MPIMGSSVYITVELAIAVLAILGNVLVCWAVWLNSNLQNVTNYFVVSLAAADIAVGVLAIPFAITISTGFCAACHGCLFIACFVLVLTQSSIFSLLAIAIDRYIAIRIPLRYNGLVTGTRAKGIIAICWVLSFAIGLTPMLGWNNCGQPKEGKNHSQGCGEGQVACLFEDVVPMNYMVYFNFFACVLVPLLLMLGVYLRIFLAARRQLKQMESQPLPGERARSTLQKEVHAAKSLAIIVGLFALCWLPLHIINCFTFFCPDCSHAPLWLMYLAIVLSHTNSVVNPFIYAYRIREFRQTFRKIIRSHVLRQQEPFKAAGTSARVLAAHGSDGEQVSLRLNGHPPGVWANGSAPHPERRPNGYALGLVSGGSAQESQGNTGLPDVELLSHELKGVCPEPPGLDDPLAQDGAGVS

For CNC(=O)c1cnn(-c2nc(N)c3ncn([C@@H]4O[C@H](CO)[C@@H](O)[C@H]4O)c3n2)c1 [(1-{9-[(4S,2R,3R,5R)-3,4-dihydroxy-5-(hydroxymethyl)oxolan-2-yl]-6-aminopurin-2-yl}pyrazol-4-yl)-N-methylcarboxamide], the “A2A-adenosine receptor agonist selectivity” value [1] is given as “highly selective A2A-adenosine receptor agonist”.

For Nc1ncnc2c1ncn2[C@@H]1O[C@H](CO)[C@@H](O)[C@H]1O [Adenosine], the “half life in humans” value [2] is given as “less than 10 seconds”.

With CNC(=O)c1cnn(-c2nc(N)c3ncn([C@@H]4O[C@H](CO)[C@@H](O)[C@H]4O)c3n2)c1 [Amorphous Material, (1-{9-[(4S,2R,3R,5R)-3,4-dihydroxy-5-(hydroxymethyl)oxolan-2-yl]-6-aminopurin-2-yl}pyrazol-4-yl)-N-methylcarboxamide] the “stability in the presence of atmospheric moisture” value ([3]; atmospheric moisture) was “unstable in the presence of atmospheric moisture, forming variable hydrates”.

In the case of CNC(=O)c1cnn(-c2nc(N)c3ncn([C@@H]4O[C@H](CO)[C@@H](O)[C@H]4O)c3n2)c1.O [Form A, (1-{9-[(4S,2R,3R,5R)-3,4-dihydroxy-5-(hydroxymethyl)oxolan-2-yl]-6-aminopurin-2-yl}pyrazol-4-yl)-N-methylcarboxamide monohydrate], the “stability relative to the other polymorphs” value ([3]; listed as monohydrate) is reported as “the most stable”, the “stability relative to the other polymorphs” value [3] is reported as “the most stable of the various polymorphs at ambient temperatures” and the “stability under relative humidity stress conditions” value ([3]; listed as monohydrate) is reported as “stable under relative humidity stress conditions, up to its melting point”. For the same compound, the “stability under relative humidity stress conditions” value [3] was “stable under relative humidity stress conditions up to its melting point”.

With CNC(=O)c1cnn(-c2nc(N)c3ncn([C@@H]4O[C@H](CO)[C@@H](O)[C@H]4O)c3n2)c1 [Polymorph C, (1-{9-[(4S,2R,3R,5R)-3,4-dihydroxy-5-(hydroxymethyl)oxolan-2-yl]-6-aminopurin-2-yl}pyrazol-4-yl)-N-methylcarboxamide] the “behaviour at elevated temperatures” value ([3]; elevated temperatures) was “desolvates to an unstable form”.
